What was measured:
[1] = target: Tyrosine-protein kinase JAK1 (Homo sapiens, UniProt P23458)
[2] = target: T1, Tyrosine-protein kinase JAK3 (Homo sapiens, UniProt P52333)
T1 sequence (P52333 whole entry): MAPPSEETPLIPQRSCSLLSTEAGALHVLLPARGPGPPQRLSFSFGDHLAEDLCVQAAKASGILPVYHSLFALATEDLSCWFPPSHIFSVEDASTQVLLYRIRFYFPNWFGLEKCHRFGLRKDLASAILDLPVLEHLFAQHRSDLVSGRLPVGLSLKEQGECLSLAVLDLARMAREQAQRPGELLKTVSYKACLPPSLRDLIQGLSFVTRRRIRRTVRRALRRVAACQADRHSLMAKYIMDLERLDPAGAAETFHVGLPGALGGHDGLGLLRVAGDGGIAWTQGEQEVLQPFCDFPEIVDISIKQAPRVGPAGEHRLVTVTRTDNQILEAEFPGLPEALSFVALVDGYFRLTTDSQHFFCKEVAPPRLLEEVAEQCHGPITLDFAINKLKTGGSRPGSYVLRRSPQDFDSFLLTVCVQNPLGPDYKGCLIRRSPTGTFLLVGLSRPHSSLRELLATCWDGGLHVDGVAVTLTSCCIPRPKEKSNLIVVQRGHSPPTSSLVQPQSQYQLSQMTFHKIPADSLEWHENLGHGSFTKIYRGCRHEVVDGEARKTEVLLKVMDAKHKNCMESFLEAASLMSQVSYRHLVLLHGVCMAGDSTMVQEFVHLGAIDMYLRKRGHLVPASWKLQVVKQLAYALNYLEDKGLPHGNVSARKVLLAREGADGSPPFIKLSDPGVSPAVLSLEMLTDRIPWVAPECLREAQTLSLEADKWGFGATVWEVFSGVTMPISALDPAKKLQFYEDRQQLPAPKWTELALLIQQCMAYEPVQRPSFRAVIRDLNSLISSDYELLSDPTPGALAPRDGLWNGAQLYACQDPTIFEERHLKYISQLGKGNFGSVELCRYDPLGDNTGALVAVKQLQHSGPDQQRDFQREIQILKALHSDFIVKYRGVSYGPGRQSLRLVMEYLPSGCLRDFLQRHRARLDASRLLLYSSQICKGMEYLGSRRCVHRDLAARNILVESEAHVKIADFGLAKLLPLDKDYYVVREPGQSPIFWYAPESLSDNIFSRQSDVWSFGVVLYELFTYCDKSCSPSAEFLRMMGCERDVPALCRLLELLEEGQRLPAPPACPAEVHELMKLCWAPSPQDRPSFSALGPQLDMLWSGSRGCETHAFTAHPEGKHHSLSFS
Description: Inhibition of JAK3 (unknown origin) measured after 1 hr in presence of ATP by TR-FRET assay

HEL 92.1.7 [3] = assay: cells; format: functional; settings: Homo sapiens, HEL 92.1.7, 72 h
Description: Antiproliferative activity against HEL 92.1.7 cells assessed as viable cells at 10 uM measured after 3 days by WST-1 assay

HCC827 = format: functional, Homo sapiens; settings: at 30 µM
Description: Cytotoxicity against wild-type human HCC827 cells at 30 uM measured after 72 hrs by MTT assay

HEL 92.1.7 [4] = format: functional, Homo sapiens
Description: Antiproliferative activity against HEL 92.1.7 cells assessed as inhibition of cell growth

HEL 92.1.7 [5] = assay: cells; settings: Homo sapiens, HEL 92.1.7, 72 h
Description: Antiproliferative activity against HEL 92.1.7 cells assessed as viable cells measured after 3 days by WST-1 assay

Sequence of Tyrosine-protein kinase JAK1 (P23458 whole entry): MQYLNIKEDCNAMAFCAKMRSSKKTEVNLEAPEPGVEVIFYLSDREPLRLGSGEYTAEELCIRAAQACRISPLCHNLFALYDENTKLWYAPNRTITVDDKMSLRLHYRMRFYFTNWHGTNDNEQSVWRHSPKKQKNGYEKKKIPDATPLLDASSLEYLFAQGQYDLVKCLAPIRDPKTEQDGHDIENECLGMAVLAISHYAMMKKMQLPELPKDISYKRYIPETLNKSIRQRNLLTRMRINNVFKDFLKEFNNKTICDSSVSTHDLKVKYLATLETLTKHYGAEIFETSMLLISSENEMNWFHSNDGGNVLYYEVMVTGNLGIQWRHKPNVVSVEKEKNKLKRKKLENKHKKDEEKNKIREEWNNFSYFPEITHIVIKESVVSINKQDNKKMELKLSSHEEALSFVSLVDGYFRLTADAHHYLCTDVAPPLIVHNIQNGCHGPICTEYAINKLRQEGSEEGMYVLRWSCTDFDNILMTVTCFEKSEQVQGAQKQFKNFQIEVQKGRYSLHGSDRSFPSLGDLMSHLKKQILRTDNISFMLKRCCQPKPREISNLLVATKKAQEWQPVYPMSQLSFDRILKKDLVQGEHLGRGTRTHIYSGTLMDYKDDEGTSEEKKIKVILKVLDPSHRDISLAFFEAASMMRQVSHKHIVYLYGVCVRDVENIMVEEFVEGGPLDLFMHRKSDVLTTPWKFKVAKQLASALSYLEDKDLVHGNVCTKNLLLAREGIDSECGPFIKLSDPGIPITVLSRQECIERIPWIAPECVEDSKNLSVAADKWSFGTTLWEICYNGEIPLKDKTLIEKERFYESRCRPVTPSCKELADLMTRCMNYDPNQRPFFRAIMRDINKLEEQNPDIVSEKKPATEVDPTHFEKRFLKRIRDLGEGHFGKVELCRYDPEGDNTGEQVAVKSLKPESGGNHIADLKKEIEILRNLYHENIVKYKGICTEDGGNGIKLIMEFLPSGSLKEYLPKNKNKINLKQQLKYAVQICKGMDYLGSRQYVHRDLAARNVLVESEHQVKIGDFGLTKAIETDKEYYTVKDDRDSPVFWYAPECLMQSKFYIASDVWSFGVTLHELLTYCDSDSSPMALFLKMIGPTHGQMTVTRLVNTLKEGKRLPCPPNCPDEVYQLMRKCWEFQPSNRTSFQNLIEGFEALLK

Row | SMILES | IC50 [1] [nM] | inhibition at 10 µM (HEL 92.1.7 [3]) [%] | other results
1 | Cc1nn(CCCC#N)nc1-c1ncnc2[nH]ccc12 | 72 | 65.3 | IC50 [2]: 1760 nM
2 | Cc1nn(CCCCCC#N)nc1-c1ncnc2[nH]ccc12 | 186 |  | 
3 | Cc1nn(CC2CCC2)nc1-c1ncnc2[nH]ccc12 |  | 49.8 | 
4 | C=C(C)Cn1nc(C)c(-c2ncnc3[nH]ccc23)n1 | 142 | 52.7 | 
5 | Cc1nn(CCCCC#N)nc1-c1ncnc2[nH]ccc12 | 138 | 41.3 | 
6 | Cc1nn(CC2CCCC2)nc1-c1ncnc2[nH]ccc12 |  | 64.1 | 
7 | Cc1nn(CCCC(F)(F)F)nc1-c1ncnc2[nH]ccc12 | 82 | 9.1 | 
8 | Cc1nn(CC2CC2)nc1-c1ncnc2[nH]ccc12 | 444 | 44.8 | IC50 [2]: 2440 nM
9 | N#CC[C@H](C1CCCC1)n1cc(-c2ncnc3[nH]ccc23)cn1 [RUXOLITINIB] |  |  | inhibition (INH) (HCC827): 16.6%; growth inhibition (GI) (HEL 92.1.7 [4]): 55%; IC50 (HEL 92.1.7 [5]): 14700 nM
